In patent US11684589B2, “Pharmaceutical compositions for use in the therapy of blepharitis” (NOVALIQ GMBH, priority 2016, dated 2023):

Columns and labels:
Type in all cases: in vivo, patients
[1] = test system: abnormal lid margin features; assay: Lid margin assessment (abnormal lid margin features) in observational patient study
Method: A prospective, uncontrolled, open-label, multi-center observational study was conducted with a total of 72 (53 female, 19 male) patients included, with 1 to 20 patients per site. Two patients were lost for follow-up during the study. Patients to be included had to fulfill following criteria: • Males or females≥18 years of age; • Patients with symptoms as determined by • Tear Film Break-Up Time (TFBUT)≤10 s • Ocular Surface Disease Index≥16 and ≤55 • Schirmer I Test≥2 mm (recorded within 5 min) • Sum of peripheral corneal and conjunctival staining grade≤10 (Oxford) • Altered secretion and expressibility of the meibomian glands.
Among those, patients fulfilling the following criteria were not included in the study: • Known hypersensitivity to any of the components of NovaTears®; • Contact lens wear, pregnancy, or breast feeding; • Presence of dry eye disease (DED) caused by any other known underlying systemic disease; • Planned ophthalmologic surgical procedure during the course of the study; • Use of lipid-containing or tear-film stabilizing eye drops/sprays except cyclosporin formulations.
Patients selected as described above were administered 1-perfluorohexyloctane (F6H8) eye drops, manufactured under the tradename “NovaTears®” (Novaliq GmbH, Heidelberg, Germany) for a period of 7 weeks. Said formulation consists essentially of 1-perfluorohexyloctane (F6H8), it is water-free and contains no additional preservatives or ingredients. A dose of 3 to 4 droplets (corresponding to 40 μl, 10 μl per drop) per eye and day were administered topically to the eye, with 1 droplet being administered as a single dose. NovaTears® single droplets were administered directly to the surface of the eye into a pocket that was formed by gently pulling down the lower eyelid. Assessment of the eyes treated was performed once before the start of NovaTears® administration (baseline) and once after 7 weeks of treatment (follow-up).
Lid Margin Assessment As a further parameter abnormal lid margin features, such as teleangiectasia, plugging and lid swelling were assessed in the study. Assessment was performed for each eye separately.

anterior blepharitis = assay: Assessment of anterior blepharitis severity in observational patient study; conditions: for Anterior blepharitis shift table, changes from baseline for both eyes: 7 weeks
Method: (§1) A prospective, uncontrolled, open-label, multi-center observational study was conducted with a total of 72 (53 female, 19 male) patients included, with 1 to 20 patients per site. Two patients were lost for follow-up during the study. Patients to be included had to fulfill following criteria: • Males or females≥18 years of age; • Patients with symptoms as determined by • Tear Film Break-Up Time (TFBUT)≤10 s • Ocular Surface Disease Index≥16 and ≤55 • Schirmer I Test≥2 mm (recorded within 5 min) • Sum of peripheral corneal and conjunctival staining grade≤10 (Oxford) • Altered secretion and expressibility of the meibomian glands. Among those, patients fulfilling the following criteria were not included in the study: • Known hypersensitivity to any of the components of NovaTears®; • Contact lens wear, pregnancy, or breast feeding; • Presence of dry eye disease (DED) caused by any other known underlying systemic disease; • Planned ophthalmologic surgical procedure during the course of the study; • Use of lipid-containing or tear-film stabilizing eye drops/sprays except cyclosporin formulations. Patients selected as described above were administered 1-perfluorohexyloctane (F6H8) eye drops, manufactured under the tradename “NovaTears®” (Novaliq GmbH, Heidelberg, Germany) for a period of 7 weeks. Said formulation consists essentially of 1-perfluorohexyloctane (F6H8), it is water-free and contains no additional preservatives or ingredients. A dose of 3 to 4 droplets (corresponding to 40 μl, 10 μl per drop) per eye and day were administered topically to the eye, with 1 droplet being administered as a single dose. NovaTears® single droplets were administered directly to the surface of the eye into a pocket that was formed by gently pulling down the lower eyelid. Assessment of the eyes treated was performed once before the start of NovaTears® administration (baseline) and once after 7 weeks of treatment (follow-up). Anterior blepharitis involves inflammation of the lid margin anterior to the gray line and is usually concentrated around the eyelashes and follicles. Posterior blepharitis involves inflammation of the posterior lid margin. The severity of anterior and posterior blepharitis was rated separately for each eye by selecting one of the following ratings: “none”, “+”, “++”, “+++” (with “+++” indicating most severe blepharitis anterior or posterior).

posterior blepharitis = assay: Assessment of posterior blepharitis severity in observational patient study; conditions: for Posterior blepharitis shift table, changes from baseline for both eyes: 7 weeks
Method: as §1

[2] = 7 weeks of treatment, 3 to 4 droplets per eye and day, including patients with scores ++ and +

## CCCCCCCCC(F)(F)C(F)(F)C(F)(F)C(F)(F)C(F)(F)C(F)(F)F [1-perfluorohexyloctane]
[1]; 7 weeks of treatment
  Abnormal lid margin features (teleangiectasia, plugging, lid swelling) after treatment: significantly reduced
[1]; follow-up after 7 weeks of treatment, assessed for each eye separately, baseline 30
  Assessment of lid margin, Lid Swelling: 20
[1]; follow-up after 7 weeks of treatment, assessed for each eye separately, baseline 74
  Assessment of lid margin, Teleangiectasia: 49
[1]; follow-up after 7 weeks of treatment, assessed for each eye separately, baseline 90
  Assessment of lid margin, Plugging: 59
Anterior blepharitis; [2]
  Severity of anterior blepharitis after treatment: decreased for all patients
Anterior blepharitis; baseline +++, follow-up +++
  Anterior blepharitis shift table, changes from baseline for both eyes: 0 eyes
Anterior blepharitis; baseline +++, follow-up ++
  Anterior blepharitis shift table, changes from baseline for both eyes: 0 eyes
Anterior blepharitis; baseline +++, follow-up +
  Anterior blepharitis shift table, changes from baseline for both eyes: 0 eyes
Anterior blepharitis; baseline +++, follow-up none
  Anterior blepharitis shift table, changes from baseline for both eyes: 0 eyes
Anterior blepharitis; baseline ++, follow-up +++
  Anterior blepharitis shift table, changes from baseline for both eyes: 0 eyes
Anterior blepharitis; baseline ++, follow-up ++
  Anterior blepharitis shift table, changes from baseline for both eyes: 4 eyes
Anterior blepharitis; baseline ++, follow-up +
  Anterior blepharitis shift table, changes from baseline for both eyes: 7 eyes
Anterior blepharitis; baseline ++, follow-up none
  Anterior blepharitis shift table, changes from baseline for both eyes: 4 eyes
Anterior blepharitis; baseline +, follow-up +++
  Anterior blepharitis shift table, changes from baseline for both eyes: 0 eyes
Anterior blepharitis; baseline +, follow-up ++
  Anterior blepharitis shift table, changes from baseline for both eyes: 1 eyes
Anterior blepharitis; baseline +, follow-up +
  Anterior blepharitis shift table, changes from baseline for both eyes: 20 eyes
Anterior blepharitis; baseline +, follow-up none
  Anterior blepharitis shift table, changes from baseline for both eyes: 38 eyes
Anterior blepharitis; baseline none, follow-up +++
  Anterior blepharitis shift table, changes from baseline for both eyes: 0 eyes
Anterior blepharitis; baseline none, follow-up ++
  Anterior blepharitis shift table, changes from baseline for both eyes: 2 eyes
Anterior blepharitis; baseline none, follow-up +
  Anterior blepharitis shift table, changes from baseline for both eyes: 15 eyes
Anterior blepharitis; baseline none, follow-up none
  Anterior blepharitis shift table, changes from baseline for both eyes: 31 eyes
Anterior blepharitis; follow-up after 7 weeks of treatment, 122 eyes from 61 patients, baseline 0
  Assessment of anterior blepharitis, grade +++: 0 eyes
Anterior blepharitis; follow-up after 7 weeks of treatment, 122 eyes from 61 patients, baseline 15
  Assessment of anterior blepharitis, grade ++: 7 eyes
Anterior blepharitis; follow-up after 7 weeks of treatment, 122 eyes from 61 patients, baseline 48
  Assessment of anterior blepharitis, grade none: 73 eyes
Anterior blepharitis; follow-up after 7 weeks of treatment, 122 eyes from 61 patients, baseline 59
  Assessment of anterior blepharitis, grade +: 42 eyes
Posterior blepharitis; [2]
  Severity of posterior blepharitis after treatment: decreased for all patients
Posterior blepharitis; baseline 0 (none), follow-up 0 (none)
  Posterior blepharitis shift table, changes from baseline for both eyes: 26 eyes
Posterior blepharitis; baseline 0 (none), follow-up +++
  Posterior blepharitis shift table, changes from baseline for both eyes: 0 eyes
Posterior blepharitis; baseline 0 (none), follow-up ++
  Posterior blepharitis shift table, changes from baseline for both eyes: 0 eyes
Posterior blepharitis; baseline 0 (none), follow-up +
  Posterior blepharitis shift table, changes from baseline for both eyes: 5 eyes
Posterior blepharitis; baseline +++, follow-up 0 (none)
  Posterior blepharitis shift table, changes from baseline for both eyes: 4 eyes
Posterior blepharitis; baseline +++, follow-up +++
  Posterior blepharitis shift table, changes from baseline for both eyes: 0 eyes
Posterior blepharitis; baseline +++, follow-up ++
  Posterior blepharitis shift table, changes from baseline for both eyes: 0 eyes
Posterior blepharitis; baseline +++, follow-up +
  Posterior blepharitis shift table, changes from baseline for both eyes: 2 eyes
Posterior blepharitis; baseline ++, follow-up 0 (none)
  Posterior blepharitis shift table, changes from baseline for both eyes: 10 eyes
Posterior blepharitis; baseline ++, follow-up +++
  Posterior blepharitis shift table, changes from baseline for both eyes: 0 eyes
Posterior blepharitis; baseline ++, follow-up ++
  Posterior blepharitis shift table, changes from baseline for both eyes: 8 eyes
Posterior blepharitis; baseline ++, follow-up +
  Posterior blepharitis shift table, changes from baseline for both eyes: 14 eyes
Posterior blepharitis; baseline +, follow-up 0 (none)
  Posterior blepharitis shift table, changes from baseline for both eyes: 20 eyes
Posterior blepharitis; baseline +, follow-up +++
  Posterior blepharitis shift table, changes from baseline for both eyes: 0 eyes
Posterior blepharitis; baseline +, follow-up ++
  Posterior blepharitis shift table, changes from baseline for both eyes: 3 eyes
Posterior blepharitis; baseline +, follow-up +
  Posterior blepharitis shift table, changes from baseline for both eyes: 30 eyes
Posterior blepharitis; follow-up after 7 weeks of treatment, 122 eyes from 61 patients, baseline 6
  Assessment of posterior blepharitis, grade +++: 0 eyes
Posterior blepharitis; follow-up after 7 weeks of treatment, 122 eyes from 61 patients, baseline 31
  Assessment of posterior blepharitis, grade none: 60 eyes
Posterior blepharitis; follow-up after 7 weeks of treatment, 122 eyes from 61 patients, baseline 32
  Assessment of posterior blepharitis, grade ++: 11 eyes
Posterior blepharitis; follow-up after 7 weeks of treatment, 122 eyes from 61 patients, baseline 53
  Assessment of posterior blepharitis, grade +: 51 eyes
Posterior blepharitis; patients with the most severe posterior blepharitis rated +++
  Reduction in the severity of posterior blepharitis after treatment: most significant reduction
